In patent US8425880B1, “Metal-containing materials for treatment of bacterial conditions” (priority 2007, dated 2013):
Where “and” joins values, the source holds several entries; their conditions need not be identical. Identical values can stand only once.

What was measured:
[1] = tested on: C. difficile spores (strain ATCC 43596); assay: Sporicidal assay; type: cell-based, Clostridium difficile; parameters: key to growth after 5-6 days of subculture: presence (+) or absence (−) of growth after 5-6 days of subculture; presence (+) or absence (−) of growth after 5-6 days of subculture
Protocol: Louis, Mo.). […] Silver preparations were filtered at 0.2 microns and stored in the dark at room temperature. Spore germination was induced as previously described in, for example, […] and Sonenshein A L. Mol Microbiol. 2003 48(3): 811-821; and Ionesco H. C R Acad Sci Hebd […]. 25; 287(6):659-61. C. difficile suspended in BHI was heat-killed at 80° C. for 10 minutes, and germination then stimulated by a 30-min incubation at 50° C. in the presence of 165 μM thioglycollate, followed by a 15-min incubation at 37° C. in the presence of 4 mg/ml lysozyme.

[2] = tested on: C. difficile; type: cell-based, Clostridium difficile; conditions: for Microdilution MIC: pH 4
[3] = tested on: C. perfringens; type: cell-based, Clostridium perfringens

Compound: silver (I) oxide [Ag2O]
- inactivation of C. difficile spores [1]: inactivated the spores of C. difficile
- growth after 5-6 days of subculture ([1]; Expt 3, Conc. 0.01%): −
- growth after 5-6 days of subculture ([1]; Expt 3, Conc. 0.03%): −
- Microdilution MIC [2]: 16 ppm and 31 ppm

Compound: O=[N+]([O-])[O-].[Ag+] [AgNO3, Silver nitrate]
- MIC [3]: 92 ppm (μg/ml)
- inactivation of C. difficile spores [1]: inactivated the spores of C. difficile
- growth after 5-6 days of subculture ([1]; Expt 2, Conc. 0.00005%): +
- growth after 5-6 days of subculture ([1]; Expt 2, Conc. 0.0005%): −
- growth after 5-6 days of subculture ([1]; Expt 2, Conc. 0.005%): −
- growth after 5-6 days of subculture ([1]; Expt 2, Conc. 0.05%): −
- growth after 5-6 days of subculture ([1]; Expt 3, Conc. 0.01%): −
- growth after 5-6 days of subculture ([1]; Expt 3, Conc. 0.03%): −
- MIC [2]: 18 (8-23) ppm (μg/ml)
- Microdilution MIC [2]: 18 ppm and 9 ppm

Compound: O=CCCCC=O [Glutaraldehyde, glutaraldehyde]
- growth after 5-6 days of subculture ([1]; Expt 1, Conc. 0.02%): +
- growth after 5-6 days of subculture ([1]; Expt 1, Conc. 0.2%): −
- growth after 5-6 days of subculture ([1]; Expt 1, Conc. 2%): −
